Here are results for seven compounds from US20150265666A1, “BOTANICAL ANTIMICROBIAL COMPOSITIONS” (THE TRUSTEES OF COLUMBIA UNIVERSITY IN THE CITY OF NEW YORK, priority 2012, published 2015).

“Also recorded” adds a separate entry of the source.

For data set [1], the system named is S. aureus. Briefly: ASTM E 2783-11 protocol, 15 seconds, ingredients in Base A (Example 16). Format: cell-based. The note with it: for Log reduction compared to control: ingredients in Base A; for synergistic activity with chlorhexidine (in words): Experiment 1, Base A. How it is done: The antimicrobial efficacy of a composition comprising biguanides and fennel oil, thyme oil/thymol and/or vanilla oil was tested against S. aureus (10^7 cfu/ml). […] In-vitro study Test organism: S. aureus (10^7 cfu/ml) […] These plates were incubated at 37° C. for 24 hours and the colony counts (cfu)/ml were determined.

Data set [2] relates to S. aureus. Nature of the data set: Rapid kill method (10^8 cfu/ml S. aureus), 15 seconds, oral rinse base. Type of data set: cell-based. On the procedure: Synergistic effect of botanical extracts and biguanides (Rapid kill method (108 S. aureus)): The antimicrobial effect of an oral rinse base, containing the ingredients described in table 10 below, were tested against a high concentration of bacteria. In a sterile culture tube, 0.1 ml of S. aureus (10^8 cfu/ml) was treated with 0.9 ml of test mouthrinse for 15 seconds. The reaction was stopped with Drug neutralizing Fluid (DNF) and then further diluted with the same media. 0.5 ml of the dilution was then plated on Tripticase Soy Agar (TSA) and incubated at 37° C. overnight. The colony counts were determined and the log 10 reduction from the control (phosphate-buffered saline (PBS) inoculated with the same culture) was calculated.

The subject of data set [3] is methicillin-resistant Staphylococcus aureus (“MRSA”). Briefly: MRSA Rapid-Kill Assay (tube-dilution, US FDA-TFM, 15 second exposure). Format: cell-based.
For the next data set, the system named is P. aeruginosa. Nature of the data set: Agar-plate method: sample spread on TSA, 1 hr, then inoculated; log10 reduction. Type of data set: cell-based. The conditions noted are these: Example 3. How it is done: For oral care products, PHMB is preferred because BAC can produce mucosal irritation. PHMB is effective against gram negative bacteria. Therefore P. aeruginosa which is a gram negative organism was used in these tests. An agar-plate method was used/0.5 ml of the test sample was spread on TSA plates and for control PBS was used in the plate. These plates were incubated for 1 hr in the incubator at temperature 37±1° C. After 1 hr, the plates were taken out of the incubator and inoculated with 0.5 ml of 1×10^3 cfu/ml culture of P. aeruginosa. The plates were incubated for 18-24 hrs at 37±1° C. The antibacterial activity was determined by calculating the difference in log 10 colony-forming units (cfu) between control and test samples (i.e., log 10 reduction).

The conditions of data set [4]: use as oral antiseptic; cited from earlier work.
The subject of data set [5] is murine fibroblasts cell lines. The note with it: cited from earlier work.
In data set [6] the test system is human dennal, gingival and osteoblastic cell lines. The conditions noted are these: cited from earlier work.
For data set [7] the following is noted: 0.12% solutions, oral decontamination prior to mechanical intubation; cited from earlier work.
Setting [8] is: Experiment 1, S. aureus 10^7 cfu/ml, T, B, F, V each 0.1 % w/w, CHG 0.12 % w/w.
[9] abbreviates: Experiment 2, S. aureus 10^7 cfu/ml, each 0.1 % w/w.

For the compound `[H]/N=C(\N/C(=N/[H])NCCCCCCNC(=N)NC(=N)Nc1ccc(Cl)cc1)Nc1ccc(Cl)cc1` [Chlorhexidine (CHG)], the “Log reduction compared to control” value with S. aureus [1] (setting [8]) amounted to 0.73 log.
Regarding `Cc1ccc(C(C)C)c(O)c1` [T (Thymol)], the “Log reduction compared to control” value in the data set with S. aureus [1] (setting [8]) and in the data set on S. aureus [1] (setting [9]) was 1.29 log throughout.
For the compound `N=C(NCCCCCCNC(=N)NC(=N)Nc1ccc(Cl)cc1)NC(=N)Nc1ccc(Cl)cc1` [CHX (0.06%)], the “Log10 Growth” value with S. aureus [2] (Table 10, in oral rinse base, control growth 7.29) is 5.60 log10. The “Log10 Reduction” value with S. aureus [2] (Table 10, in oral rinse base, reduction from control (PBS)) is on record as 1.69 log10.
polyhexamethylene biguanide [PHMB]: the “antibacterial activity, effect of combining actives (in words)” value (shortened to “antibacterial activity, effect”) in data set [3] (Example 1, PHMB at 0.06%) is “showed synergistic activity with essential oils”; in the data set with P. aeruginosa, “enhanced the activity of low concentrations of essential oils and lemon extract”. For the same compound, the “Log reduction from control growth” value in data set [3] (Table 1, MRSA, conc. active agent 0.012 % w/w) was 0.4 log10; in data set [3] (Table 1, MRSA, conc. active agent 0.06 % w/w) it was 3.1 log10; in data set [3] (Table 2, MRSA, conc. active agent 0.012 % w/w) it was 0.4 log10; in data set [3] (Table 5B, MRSA, conc. active agent 0.06 % w/w), 4.0 log10. The “synergistic activity with PHMB (in words)” value in the data set with S. aureus [1] (Experiment 2, Base A, 10^7 cfu/ml) was “exhibited synergistic activity when combined with either thymol or vanilla oil; also recorded: combination of either fennel seed oil and thymol or fennel seed oil, thymol and vanilla oil with PHMB also exhibited synergistic activity”. The “Log reduction compared to control” value with S. aureus [1] (setting [9]) was found to be 1.96 log.
For the compound pentanediol, the “antibacterial activity, effect” value in the data set on P. aeruginosa was “enhanced the activity of low concentrations of essential oils and lemon extract”.
Regarding `[H]/N=C(\N/C(=N/[H])NCCCCCCNC(=N)NC(=N)Nc1ccc(Cl)cc1)Nc1ccc(Cl)cc1` [chlorhexidine], in the data set on S. aureus [2] (Example 10), the “synergistic antibacterial activity of botanical extracts and biguanides (in words)” value is listed as “did not show such synergism”. Moreover, the “synergistic activity with chlorhexidine (in words)” value in the data set with S. aureus [1] (10^7 cfu/ml) is “combination of either fennel seed oil and thymol or fennel seed oil, thymol and vanilla oil with chlorhexidine also exhibited synergistic activity”; in the data set on S. aureus [1] (10^7 cfu/ml, listed as Chlorhexidine), “exhibits synergistic activity when combined with either thymol or basil oil”. Moreover, in data set [4], the adverse effects result is “irritation of the oral mucosa, discoloration of teeth and altered taste perception”. Also, the cytotoxicity result in data set [5] and in data set [6] was “cytotoxic” each time. For the same compound, the “risk of acquiring VAP” value in data set [7] is on record as “can reduce the risk of acquiring VAP”.
Turning to benzalkonium chloride [BAC], the “antibacterial activity, effect” value in data set [3] (Example 1, actives in base formulation) is reported as “enhanced the activity of essential oil mixtures containing thymol”; in data set [3] (Example 4), “enhances the activity of essential oils (CN+LG+T)”. Also, the “Log reduction from control growth” value was 0.05 log10 in data set [3] (Table 1, MRSA, conc. active agent 0.13 % w/w); 0.05 log10 in data set [3] (Table 2, MRSA, conc. active agent 0.13 % w/w); 0.5 log10 in data set [3] (Table 5A, MRSA, conc. active agent 0.6 % w/w).
